Source: PubChem BioAssay (NCI)
Where “and” joins values, the source holds several entries; their conditions need not be identical. Equal entries are not always repeated.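 Method: 48-hour compound exposure of cells in 96-well plates, five concentrations, linear interpolation of endpoints. At the GI50, growth is halved. Definition used: TGI = concentration required for complete inhibition of growth.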

Tests used:
Assay in all cases: NCI anticancer screen, dose series, 48 h
786-0 renal = test system: 786-0 renal
DU-145 prostate = test system: DU-145 prostate
HCT-116 colon = test system: HCT-116 colon
HOP-92 NSCLC = test system: HOP-92 NSCLC
MDA-MB-231 breast = test system: MDA-MB-231 breast
SF-268 CNS = test system: SF-268 CNS
SF-295 CNS = test system: SF-295 CNS
SK-MEL-5 melanoma = test system: SK-MEL-5 melanoma
SNB-75 CNS = test system: SNB-75 CNS
ACHN renal = test system: ACHN renal

| SMILES | GI50 (786-0 renal) | TGI (786-0 renal) | GI50 (DU-145 prostate) | TGI (DU-145 prostate) | GI50 (HCT-116 colon) | TGI (HCT-116 colon) | GI50 (HOP-92 NSCLC) | TGI (HOP-92 NSCLC) | GI50 (MDA-MB-231 breast) | TGI (MDA-MB-231 breast) | GI50 (SF-268 CNS) | TGI (SF-268 CNS) | GI50 (SF-295 CNS) | TGI (SF-295 CNS) | GI50 (SK-MEL-5 melanoma) | TGI (SK-MEL-5 melanoma) | GI50 (SNB-75 CNS) | TGI (SNB-75 CNS) | GI50 (ACHN renal) | TGI (ACHN renal) |
| --- | --- | --- | --- | --- | --- | --- | --- | --- | --- | --- | --- | --- | --- | --- | --- | --- | --- | --- | --- | --- |
| COC12C=C/C(=C(/C(=O)OCc3ccccn3)C(=O)CCCCCCCCC3(OC)C=C/C(=C(/C(=O)OCc4ccccn4)C(=O)CCCCCCCC1)O3)O2 | 0.326 µM | 1.05 µM | 0.564 µM | 1.87 µM | 0.223 µM | 0.47 µM | 1.65 µM | 3.54 µM | 0.485 µM | > 100 µM | 1.12 µM | 4.81 µM | 0.397 µM | 2.15 µM | 0.221 µM | 0.492 µM | 0.827 µM | 2.37 µM |  |  |
| Cc1cc2c(cc1Cl)S/C(=C/C(=O)O)C(Nc1ccc3ncsc3c1)=NS2(=O)=O | 8.57 µM | 22.1 µM | 21.2 µM | > 97.3 µM | 9.93 µM | > 42.9 µM | 7.76 µM | 21.5 µM | 20.9 µM | > 63.7 µM | > 23.9 µM | > 74.9 µM | > 31.6 µM | > 48.1 µM | > 14.6 µM | > 24 µM | > 100 µM | > 100 µM | > 52.6 µM | > 68 µM |
| Nc1ccc(C2=CC(c3ccc(Cl)cc3)N3C=CSC3=N2)cc1 (stereo unspecified) | 6.74 µM | 25.7 µM | 5.11 µM | 16.9 µM | 1.66 µM | 3.2 µM | 17.7 µM | 72.4 µM | 4.76 µM | 46.9 µM | 11.3 µM | 30.7 µM | 13.1 µM | 40.4 µM | 5.67 µM | 19.2 µM | 5.29 µM | 22.8 µM | 2.02 µM | 4.46 µM |
| COc1ccc2c(c1)c(-c1nc(-c3c[nH]c4ccncc34)cs1)cn2C | 1.7 µM | 3.24 µM | 1.75 µM | 3.25 µM | 1.69 µM | 3.22 µM | 1.64 µM | 3.33 µM | 1.45 µM | 2.95 µM | 1.77 µM | 3.37 µM | 1.69 µM | 3.13 µM | 1.65 µM | 3.02 µM | 1.52 µM | 2.91 µM | 1.77 µM | 3.17 µM |
| COc1cc(/C=C/C(=O)/C=C/c2ccc(-n3ccnc3C)cc2)ccc1O | 2.11 µM | 5.21 µM | 2.82 µM | 7.55 µM |  |  | 10.1 µM | 45.6 µM | 2.87 µM | 9.03 µM | 2.9 µM | 12.1 µM | 24.6 µM | > 100 µM | 3.25 µM | 11.9 µM | 9.61 µM | > 100 µM | 3.04 µM | 10.4 µM |
| COc1ccc(-c2nc(-c3ccc(C)cc3)cn3ccnc23)cc1 | 8.6 µM | 45.6 µM | 6.11 µM | > 50 µM | 2.61 µM | > 50 µM | 16.2 µM | > 50 µM | 4.24 µM | 38.8 µM | 3.06 µM | > 50 µM | 3.69 µM | > 50 µM | 1.68 µM | 5.2 µM |  |  | 7.58 µM | > 50 µM |
| CCCCCCCCCCCCCCCCCCn1cc[n+](C)c1 | 0.952 µM | 3.32 µM | 0.801 µM and 0.87 µM | 2.06 µM and 2.1 µM |  |  | 0.35 µM | 2.62 µM | 1.08 µM | 2.52 µM |  |  |  |  |  |  |  |  | 0.54 µM and 0.69 µM | 2.04 µM and 2.03 µM |
| COC(=O)C1=C(O)[C@H](C(=O)OC)C2(O)C(C(=O)OC)[C@H](c3ccc(OC(=O)C(C)c4ccc(CC(C)C)cc4)cc3)C[C@@H]1[C@@H]2C(=O)OC (stereo partly specified) | 20.4 µM | > 50 µM | 0.804 µM | 9.58 µM | > 50 µM | > 50 µM | 32.8 µM | > 50 µM | 5.52 µM | 22.8 µM | > 50 µM | > 50 µM | > 50 µM | > 50 µM | 15 µM | > 50 µM |  |  | 12 µM | 31.3 µM |
| OC(COC(c1ccccc1)(c1ccccc1)c1ccccc1)C(O)CC1SCCS1 (stereo unspecified) |  | 39.7 µM |  | 41.5 µM |  | 37.1 µM |  |  |  | 35.2 µM |  | 50.9 µM |  |  |  | 40.1 µM |  |  |  | 38.3 µM |
| CC(C)(C)C1CCC2c3c([nH]c4ccccc34)C3C(=O)N(c4ccc(Cl)cc4)C(=O)C3C2C1 (stereo unspecified) | > 100 µM | > 100 µM | > 100 µM | > 100 µM | 65.3 µM and > 10 µM | > 100 µM |  |  | 56.1 µM and > 10 µM | > 100 µM | 53.9 µM and > 10 µM | > 100 µM |  |  | > 100 µM | > 100 µM | > 100 µM | > 100 µM | 76.5 µM and > 10 µM | > 100 µM |
| CC1=C(SCCC(=O)OC(C[Se]C2=C(C)C(=O)c3ccccc3C2=O)C(=O)NCCCCCC(=O)OCc2ccccc2)C(=O)c2ccccc2C1=O (stereo unspecified) | 4.68 µM | 14 µM |  |  | 1.99 µM | 4.6 µM | 2.7 µM | 7.89 µM | 6.81 µM | 22 µM | 7.33 µM | 19.9 µM | 2.49 µM | 8.7 µM | 3.81 µM | 14.9 µM | 11.5 µM | 23.8 µM | 12.1 µM | 27.6 µM |
| CCOC(=O)c1cc2c(cc1Cl)SC(=Nc1ccccc1)N(S(=O)(=O)c1ccc(Cl)cc1)S2(=O)=O | 13.5 µM | 27.5 µM | 17.3 µM | 31 µM | 6.32 µM | 21.9 µM |  |  | 13.2 µM | 33.7 µM | 12.1 µM | 32 µM | 19.5 µM | 48.6 µM | 9.5 µM | 21.6 µM | 38.2 µM | > 100 µM | 14.5 µM | 28.8 µM |
| O=S(=O)(O)c1cc(O)c(N=Nc2ccc(O)cc2O)c2ccccc12 |  | > 100 µM |  |  |  | > 100 µM |  | > 100 µM |  | > 100 µM |  | > 100 µM |  | > 100 µM |  | > 100 µM |  | > 100 µM |  | > 100 µM |
| NCCCC[C@@H]1NC(=O)[C@H](CC(=O)O)NC(=O)CNC(=O)[C@H](CCCN=C(N)N)NC(=O)[C@@H](N)CSSC[C@@H](C(=O)O)NC(=O)[C@H](CC(=O)O)NC(=O)[C@@H]2CCCN2C(=O)CNC1=O | > 100 µM | > 100 µM | > 100 µM | > 100 µM | > 100 µM | > 100 µM | > 100 µM | > 100 µM |  |  | > 100 µM | > 100 µM | > 100 µM | > 100 µM | > 100 µM | > 100 µM |  |  | > 100 µM | > 100 µM |
